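Each compound was tested at five concentrations against cells in 96-well plates for 48 hours. The concentration for 50% growth inhibition is given as GI50. TGI: concentration producing complete growth inhibition.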
Experiments:
Test in all cases: inhibition of tumour cell growth, NCI panel, 48 h
EKVX NSCLC = tested on: EKVX NSCLC
KM12 colon = tested on: KM12 colon
MDA-MB-435 = tested on: MDA-MB-435
MOLT-4 leukemia = tested on: MOLT-4 leukemia
NCI-H23 lung = tested on: NCI-H23 lung
NCI-H522 lung = tested on: NCI-H522 lung
HCT-116 colon = tested on: HCT-116 colon
SW-620 colon = tested on: SW-620 colon
SR leukemia = tested on: SR leukemia
OVCAR-4 ovarian = tested on: OVCAR-4 ovarian

SMILES	TGI (EKVX NSCLC) [µM]	TGI (KM12 colon) [µM]	TGI (MDA-MB-435) [µM]	TGI (MOLT-4 leukemia) [µM]	TGI (NCI-H23 lung) [µM]	TGI (NCI-H522 lung) [µM]	TGI (HCT-116 colon) [µM]	TGI (SW-620 colon) [µM]	TGI (SR leukemia) [µM]	TGI (OVCAR-4 ovarian) [µM]	GI50 (EKVX NSCLC) [µM]	GI50 (KM12 colon) [µM]	GI50 (MDA-MB-435) [µM]	GI50 (MOLT-4 leukemia) [µM]	GI50 (NCI-H23 lung) [µM]	GI50 (NCI-H522 lung) [µM]	GI50 (SW-620 colon) [µM]	GI50 (OVCAR-4 ovarian) [µM]	GI50 (SR leukemia) [µM]
CCOC(=O)C(Cc1ccc(OC(=O)OC(C)(C)C)cc1)NC(=O)OC(C)(C)C (stereo unspecified)	> 100	> 100	> 100	56.7	> 100	> 100	> 100	> 100	67.5	> 100	–	–	–	–	–	–	–	–	–
Clc1ccc(-c2cn3c(nc4ccccc43)c(/C=C/c3ccco3)n2)cc1	–	> 100	> 100	–	> 100	–	> 100	> 100	41.4	> 100	–	–	–	–	–	–	–	–	–
COc1ccccc1NC(=O)CC(=O)N1N=C(N2c3ccccc3Sc3ccccc32)CC1c1ccccc1 (stereo unspecified)	> 100	> 100	> 100	> 100	> 100	> 100	> 100	> 100	> 100	> 100	–	–	–	–	–	–	–	–	–
Cc1ccc(C(=O)Nc2ccc(CP(=O)(O)O)cc2CP(=O)(O)O)cc1NC(=O)Nc1cc(C(=O)Nc2ccc(CP(=O)(O)O)cc2CP(=O)(O)O)ccc1C	> 100	> 100	> 100	–	> 100	> 100	> 100	> 100	–	> 100	–	–	–	–	–	–	–	–	–
C[C@@H]1C(=O)C[C@H]2C(C)(C)CCC[C@]2(C)[C@@]1(O)CCc1ccoc1	> 100	> 100	> 100	> 100	> 100	> 100	> 100	> 100	> 100	> 100	–	–	–	–	–	–	–	–	–
Cc1sc2c(c1C)/C(=N\O)c1cccn1-2	> 100	> 100	> 100	> 100	–	> 100	> 100	> 100	> 100	> 100	–	–	–	–	–	–	–	–	–
CCCCCCCCCCCCCCCCOP(=O)(O)OCC(N)C(=O)O (stereo unspecified)	> 100	30.2	39.8	29	69.4	42	25.4	38.6	61.4	35.6	–	–	–	–	–	–	–	–	–
O=c1ccn(C2OC(CO)C(O)C2F)c(=O)n1Cc1ccccc1 (stereo unspecified)	> 100	> 100	> 100	> 100	> 100	> 100	> 100	> 100	> 100	–	–	–	–	–	–	–	–	–	–
COc1cc2c3c(n(C)c(=O)c2cc1OC)-c1cc2c(cc1/C3=C\CCCI)OCO2	> 100	> 100	> 100	> 36.3	> 100	> 100	> 100	> 100	23.2	> 100	–	–	–	–	–	–	–	–	–
O=C(/C=C/c1cccc(Oc2ccccc2)c1)NCc1ccc(C(=O)NCCc2ccccc2)cc1	> 100	> 100	> 100	> 100	> 100	> 100	> 100	> 100	> 100	> 100	–	–	–	–	–	–	–	–	–
CC(O)(P(=O)(O)O)P(=O)(O)OCC(O)CN1CCOCC1 (stereo unspecified)	> 100	> 100	> 100	> 100	> 100	> 100	> 100	> 100	> 100	–	–	–	–	–	–	–	–	–	–
O=c1[nH]cc(Cl)c(=O)[nH]1	> 100	> 100	> 100	> 100	> 100	> 100	> 100	> 100	> 100	> 100	–	–	–	–	–	–	–	–	–
CCOC(=O)c1nc2ccc(C(F)(F)F)cc2nc1Nc1ccc(Cl)c(Cl)c1	> 100	> 100	> 100	> 100	> 100	> 100	> 100	> 100	> 100	–	–	–	–	–	–	–	–	–	–
N=c1c2c(=S)n(-c3ccccc3)c(=S)n(-c3ccccc3)c2nc(SCCN2CCCC2)n1-c1ccccc1	7.23	11.6	3.82	3.35	9.2	3.71	4.43	–	–	7.58	–	–	–	–	–	–	–	–	–
COc1cc(OC)c2c3c(OC)cc(OC)c4c(=O)c(O)c(C[C@@H](C)O)c(c5c(C[C@@H](C)O)c(O)c(=O)c1c25)c43	> 100	83.2	32.1	39.4	40	–	30.1	35.6	–	> 100	–	–	–	–	–	–	–	–	–
O=C(c1ccc(Cl)cc1)N(C(=S)N1CCN(c2ccccn2)CC1)C1CCCCC1	–	> 100	–	96.5	> 100	> 100	> 100	> 100	> 100	> 100	–	–	–	–	–	–	–	–	–
C=C(C)COC1CCCCO1 (stereo unspecified)	> 100	> 100	> 100	> 100	> 100	> 100	> 100	> 100	–	–	–	–	–	–	–	–	–	–	–
Nc1[nH]nc2nc3ccccc3nc12	> 100	–	> 100	> 100	> 100	> 100	> 100	> 100	75.2	> 100	–	–	–	–	–	–	–	–	–
O=C1C(Cl)=C(N(C(=O)c2ccccc2)C(=O)c2ccccc2)C(=O)c2ccccc21	> 100	15.7	32.4	> 100	31.1	43.7	17.6	24.3	81.2	–	–	–	–	–	–	–	–	–	–
O=C(/C=C(\S/C=C(/c1ccccc1)N1CCn2c(C(=O)c3ccccc3)c(C(=O)c3ccccc3)c(C(=O)c3ccccc3)c21)C(=O)c1ccccc1)c1ccccc1	> 10	> 10	> 10	> 10	> 10	> 10	> 10	> 10	–	> 10	–	–	–	–	–	–	–	–	–
NC1=NS(=O)(=O)Nc2nc(-c3ccccc3)[nH]c21	> 100	> 100	–	> 100	> 100	> 100	> 100	> 100	> 100	> 100	–	–	–	–	–	–	–	–	–
C=C(NC(=O)C(=C)NC(=O)c1csc(C2=NC3c4csc(n4)C4NC(=O)c5csc(n5)C(C(C)(O)C(C)O)NC(=O)C5CSC(=N5)/C(=C/C)NC(=O)C(C(C)O)NC(=O)c5csc(n5)C3(CC2)NC(=O)C(C)NC(=O)C(=C)NC(=O)C(C)NC(=O)C(C(C)CC)NC2C=Cc3c(C(C)O)cc(nc3C2O)C(=O)OC4C)n1)C(N)=O (stereo unspecified)	> 44.1	–	–	–	13.7	1.15	1.77	1.62	–	> 100	–	–	–	–	–	–	–	–	–

SMILES	TGI (EKVX NSCLC) [µM]	TGI (KM12 colon) [µM]	TGI (MDA-MB-435) [µM]	TGI (MOLT-4 leukemia) [µM]	TGI (NCI-H23 lung) [µM]	TGI (NCI-H522 lung) [µM]	TGI (HCT-116 colon) [µM]	TGI (SW-620 colon) [µM]	TGI (SR leukemia) [µM]	TGI (OVCAR-4 ovarian) [µM]	GI50 (EKVX NSCLC) [µM]	GI50 (KM12 colon) [µM]	GI50 (MDA-MB-435) [µM]	GI50 (MOLT-4 leukemia) [µM]	GI50 (NCI-H23 lung) [µM]	GI50 (NCI-H522 lung) [µM]	GI50 (SW-620 colon) [µM]	GI50 (OVCAR-4 ovarian) [µM]	GI50 (SR leukemia) [µM]
Cc1c(N=Nc2ccccc2)c(C)n(C2OC(CO)C(O)C(O)C2O)c(=S)c1C#N (stereo unspecified)	–	> 100	71.4	70	> 100	–	46.2	> 100	87.7	> 100	–	–	–	–	–	–	–	–	–
C=C1C(=O)O[C@@H]2[C@H](O)[C@@H](C)[C@@H]3C=CC(=O)[C@@]3(C)[C@@H](OC(=O)/C(C)=C/C)[C@H]12	1.93	7.21	–	2.09	2.57	0.258	1.03	1.14	–	3.05	–	–	–	–	–	–	–	–	–
CC(C)(C)OC(=O)CN1CCNCCN(CC(=O)OC(C)(C)C)CCNCC1	> 100	> 100	> 100	> 100	–	> 100	> 100	> 100	> 100	> 100	–	–	–	–	–	–	–	–	–
COc1c(-c2nc3nc(N4CCN(C)CC4)ccc3[nH]2)cc(OC)c2c1nc(COC(C)=O)n2C	> 100	> 100	> 100	> 100	> 100	> 100	> 100	–	–	> 100	–	–	–	–	–	–	–	–	–
C/C=C1\CN(C(=O)OC(C)(C)C)C1C(=O)OC(C)(C)C (stereo unspecified)	> 100	–	> 100	> 100	> 100	–	> 100	> 100	> 100	> 100	–	–	–	–	–	–	–	–	–
Cc1ccc(C2=C(C#N)C(N)OC3=C2COc2ccccc23)cc1 (stereo unspecified)	37.4	> 100	> 100	> 100	> 100	–	> 100	> 100	> 100	40.7	–	–	–	–	–	–	–	–	–
COC(=O)c1c(O)ccc2[nH]c3c(O)c4ccccc4cc3c12	39.6	38.8	70.7	> 100	64.3	53.6	47	–	> 100	78.4	–	–	–	–	–	–	–	–	–
Cn1c(CO)ccc1-c1ccc(-c2ccc[se]2)[se]1	> 100	> 100	26.2	59.7	50.7	> 100	–	77.8	> 100	39.5	–	–	–	–	–	–	–	–	–
CCN(CC)CCN1C(=O)c2c(c3c4ccccc4[nH]c3c3ccc4ccccc4c23)C1=O	3.32	3.22	3.17	2.9	3.52	3.54	–	2.97	–	2.96	1.69	1.74	1.77	0.666	1.69	1.46	1.31	1.58	–
COc1c2c(c3ccccc3c1O)C1C=CC2C1 (stereo unspecified)	33	31.4	–	47.2	28.9	29.3	14.6	34.3	68.4	28.7	–	–	–	–	–	–	–	–	–
Cc1oc2c(c1C)S(=O)(=O)C(C#N)=C(N(C)C)N2	> 100	> 100	> 100	> 100	> 100	> 100	> 100	> 100	–	> 100	–	–	–	–	–	–	–	–	–
CCOC(=O)NC(OC)(C(F)(F)F)C(F)(F)F	> 100	–	> 100	> 100	> 100	> 100	> 100	> 100	> 100	> 100	–	–	–	–	–	–	–	–	–
O=C(Nc1cccc([N+](=O)[O-])c1)c1n[nH]n(-c2cccc([N+](=O)[O-])c2)c1=O	> 100	> 100	> 100	> 100	> 100	> 100	> 100	> 100	> 100	–	–	–	–	–	–	–	–	–	–
Cc1csc2c1-n1cccc1C2=O	> 100	> 100	> 100	> 100	–	> 100	> 100	> 100	> 100	> 100	–	–	–	–	–	–	–	–	–
NC1=Nc2cc(Cl)ccc2Sc2nc3ccccc3n21	> 100	> 100	> 100	> 100	> 100	> 100	–	> 100	–	> 100	–	–	–	–	–	–	–	–	–
O=c1oc2ccccc2cc1-c1cn2c(n1)sc1ccccc12	34.3	> 100	> 100	> 100	> 100	> 100	> 100	> 100	> 100	–	–	–	–	–	–	–	–	–	–
Cn1cc(-c2ccc3cc(-c4ccc(CC(=O)Nc5cc(C(C)(C)C)on5)cc4)cnc3c2)cn1	3.45	11.2	3.54	> 100	10.5	–	–	3.99	> 100	–	0.624	0.07	1.43	3.01	2.27	–	1.54	–	3.07
CC1(C)CCC(C)(C)C1C(=O)NC(O)C(=O)O (stereo unspecified)	> 100	–	> 100	> 100	–	–	> 100	> 100	> 100	–	–	–	–	–	–	–	–	–	–
O=C(CCC=C(S(=O)(=O)c1ccccc1)S(=O)(=O)c1ccccc1)c1ccccc1	30.5	> 100	24.3	> 100	–	9.45	13.9	15	82.6	63.6	–	–	–	–	–	–	–	–	–
Cc1cccc(N2C(=O)C3c4[nH]c5ccccc5c4C4CCC(C(C)(C)C)CC4C3C2=O)c1 (stereo unspecified)	31.4	25.2	29.6	21.3	30.1	24.3	21.2	24.1	–	25.7	–	–	–	–	–	–	–	–	–
COc1ccc([C@@H]2CC(=O)N2)cc1	> 100	> 100	–	> 100	> 100	> 100	> 100	–	> 100	> 100	–	–	–	–	–	–	–	–	–
COc1cc2c(c(O)c1OC)CC1CCC(=O)N1C2c1cccc2ccccc12 (stereo unspecified)	54.5	55.4	40.4	> 100	67.6	41	45.3	73	> 100	–	–	–	–	–	–	–	–	–	–

From PubChem BioAssay (NCI)
